{"source": "patent US8945540B2", "about": "“Compositions for enhancing the antibacterial activity of myeloperoxidase and methods of use thereof” (Exoxemis, Inc., priority 2008, dated 2015)", "key": {"S. aureus": {"test_system": "S. aureus", "experiment": "MIC, modified CLSI broth microdilution", "type": "cell-based, Staphylococcus aureus", "details": "S. aureus ATCC 29213; inoculum prepared in Diluent solution", "source_text": "(§1) All clinical isolates were obtained from the culture collection of Eurofins Medinet Anti-Infective Services (Herndon, Va.), and represent diverse geographical regions. They were originally derived from clinical specimens and identified using standard microbiological methods (see Table 33 below for details). Escherichia coli ATCC 25922, Staphylococcus aureus ATCC 25923, S. aureus ATCC 29213, Pseudomonas aeruginosa ATCC 27853, and Enterococcus faecalis ATCC 29212 were used as quality control strains for the Enhanced MPO Solution and comparator agents to validate the modified Clinical and Laboratory Standards Institute (CLSI, formally NCCLS) broth microdilution method.\n(§2) Modifications were made to the standard broth microdilution method to accommodate the rapid in vitro activity of the Enhanced MPO Solution as described below. Each antimicrobial agent and Concentrate solution was diluted in double strength cation-adjusted Mueller-Hinton Broth (CAMHB) and dispensed in mircrodilution trays. All β-hemolytic streptococci were tested in double strength CAMHB supplemented with 5% lysed horse blood. Isolates were prepared by suspending several colonies (four to six) from an overnight culture on Trypticase Soy Agar (TSA) with 5% sheep blood into sterile saline and the density adjusted to a 0.5 McFarland standard (˜10^8 CFU/ml). Standardized bacterial suspensions were further diluted in double strength Diluent solution so that approximately 5×10^5 CFU/ml was mixed with serial drug dilutions. The addition of Diluent solution to the Concentrate solution activates the enzyme system, which in turn exerts its rapid mode of action. The microdilution trays were incubated in ambient air at 35° C. for 18 to 24 h.\n(§3) MIC ranges were established for the Enhanced MPO Solution by testing over 20 replicates of one lot of the Enhanced MPO Solution against S. aureus ATCC 29213 and E. coli ATCC 25922. Quality control parameters were then determined for the Enhanced MPO Solution by testing three lots of the Concentrate solution used for preparation of the final Enhanced MPO Solution formulation. Testing was performed in duplicate against S. aureus ATCC 29213 and E. coli ATCC 25922. The effects of modifying the standard broth microdilution test were also assessed with antibiotics with known quality control limits to validate the CLSI broth microdilution method."}, "E. coli": {"test_system": "E. coli", "experiment": "MIC, modified CLSI broth microdilution", "type": "cell-based, Escherichia coli", "details": "E. coli ATCC 25922; inoculum prepared in Diluent solution", "source_text": "as §1, §2, §3"}, "Staphylococcus aureus [1]": {"test_system": "Staphylococcus aureus", "experiment": "Microbicidal activity of the myeloperoxidase system (p-MPO, glucose oxidase, glucose) with amino acids in the presence of blood, CFU plate counts; synergy determination from these CFU", "type": "cell-based", "details": "for Average Viability CFU/ml 60 min / Log Reduction 60 min: MPO 38 U/ml, GO 33.3 U/ml, blood", "in_short": "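Staphylococcus aureus grown 24 hours in TSB at 35° C was washed in saline and added at a final 2-3×10^7 CFU per mL. The bacteria were mixed in 1 mL reactions with porcine myeloperoxidase, glucose oxidase, amino acids, 150 mM sodium chloride and 3% venous whole blood. Adding glucose to 150 mM started killing. After catalase addition, survivors were counted by serial dilution plating on TSA at 37° C for 24 hours.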"}, "Staphylococcus aureus [2]": {"test_system": "Staphylococcus aureus", "experiment": "Control: microbicidal activity of the amino acid or analogue alone (no glucose, MPO, glucose oxidase) in the presence of blood", "type": "cell-based", "details": "MPO 0, GO 0, no glucose, blood; for log reduction at 5000 µM: Staphylococcus aureus, 1 h, read-out: Log Reduction 60 min", "source_text": "As a control to determine the microbicidal activity of the amino acids alone, the foregoing procedure was followed without replication, except in the absence of glucose, MPO, and glucose oxidase."}, "[3]": {"details": "Table 7, amino acid analogue 5 mM"}, "[4]": {"details": "Table 5, amino acid 5 mM (none: 0 mM)"}, "[5]": {"details": "Table 11, single amino acid 2.5 mM, MPO 4.7 U/ml, GO 4.2 U/ml, in the presence of blood, 50 min"}, "[6]": {"details": "amino acid alone 5 mM, without replication"}}, "note": "Where two headings read alike, the source gives them in different places."}
{"smiles": "Cc1nnc(SCC2=C(C(=O)O)N3C(=O)[C@@H](NC(=O)Cn4cnnn4)[C@H]3SC2)s1", "note": "[cefazolin]", "values": [{"measurement": "MIC by the modified method versus published quality control ranges", "setting": "S. aureus", "value": "within previously published quality control ranges"}, {"measurement": "MIC by the modified method versus published quality control ranges", "setting": "E. coli", "value": "within previously published quality control ranges"}]}
{"smiles": "CCOC(=O)CC(C)N", "note": "(stereo not drawn) [Ethyl 3-aminobutyrate]", "values": [{"measurement": "Average Viability CFU/ml 60 min", "setting": "Staphylococcus aureus [1]; [3]", "value": 0, "unit": "CFU/ml"}, {"measurement": "Log Reduction 60 min", "setting": "Staphylococcus aureus [1]; [3]", "value": 7.4}, {"measurement": "log reduction at 5000 µM", "setting": "Staphylococcus aureus [2]; amino acid analogue alone 5 mM", "value": 0}, {"measurement": "Average Viability CFU/ml 60 min", "setting": "Staphylococcus aureus [2]; amino acid analogue alone 5 mM", "value": 20900000, "unit": "CFU/ml"}]}
{"smiles": "N[C@H](Cc1c[nH]cn1)C(=O)O", "note": "[D-Histidine]", "values": [{"measurement": "Log 10 (CFU + 1) Survivors", "setting": "Staphylococcus aureus [1]; MPO 25 μg/mL, AA 5 mM, 30 min", "value": 7.0}, {"measurement": "Log 10 (CFU + 1) Survivors", "setting": "Staphylococcus aureus [1]; MPO 25 μg/mL, AA 5 mM, 60 min", "value": 6.0}, {"measurement": "Log 10 (CFU + 1) Survivors", "setting": "Staphylococcus aureus [1]; MPO 25 μg/mL, AA […], 30 min", "value": 6.9}, {"measurement": "Log 10 (CFU + 1) Survivors", "setting": "Staphylococcus aureus [1]; MPO 25 μg/mL, AA […], 60 min", "value": 5.8}, {"measurement": "Log 10 (CFU + 1) Survivors", "setting": "Staphylococcus aureus [1]; MPO 100 μg/mL, AA 5 mM, 30 min", "value": 5.1}, {"measurement": "Log 10 (CFU + 1) Survivors", "setting": "Staphylococcus aureus [1]; MPO 100 μg/mL, AA 5 mM, 60 min", "value": 4.1}, {"measurement": "Log 10 (CFU + 1) Survivors", "setting": "Staphylococcus aureus [1]; MPO 100 μg/mL, AA 20 mM, 30 min", "value": 6.8}, {"measurement": "Log 10 (CFU + 1) Survivors", "setting": "Staphylococcus aureus [1]; MPO 100 μg/mL, AA 20 mM, 60 min", "value": 3.9}, {"measurement": "Average Viability CFU/ml 60 min", "setting": "Staphylococcus aureus [1]; [4]", "value": 10900, "unit": "CFU/ml"}, {"measurement": "Log Reduction 60 min", "setting": "Staphylococcus aureus [1]; [4]", "value": 3.4}, {"measurement": "Average Viability CFU/ml 50 min", "setting": "Staphylococcus aureus [1]; [5]", "value": 8000000, "unit": "CFU/ml"}, {"measurement": "Log Reduction 50 min", "setting": "Staphylococcus aureus [1]; [5]", "value": 0.5}, {"measurement": "log reduction at 5000 µM", "setting": "Staphylococcus aureus [2]; [6]", "value": 0}, {"measurement": "Average Viability CFU/ml 60 min", "setting": "Staphylococcus aureus [2]; [6]", "value": 22300000, "unit": "CFU/ml"}]}
{"smiles": "Cl.NCC(N)C(=O)O", "note": "(racemic) [DL-2,3-Diaminopropionic acid monohydrochloride]", "values": [{"measurement": "Average Viability CFU/ml 60 min", "setting": "Staphylococcus aureus [1]; [3]", "value": 0, "unit": "CFU/ml"}, {"measurement": "Log Reduction 60 min", "setting": "Staphylococcus aureus [1]; [3]", "value": 7.4}, {"measurement": "log reduction at 5000 µM", "setting": "Staphylococcus aureus [2]; amino acid analogue alone 5 mM", "value": 0}, {"measurement": "Average Viability CFU/ml 60 min", "setting": "Staphylococcus aureus [2]; amino acid analogue alone 5 mM", "value": 20600000, "unit": "CFU/ml"}]}
